Measurements: paper PMC9596850, “Tonsillar Microbiome‐Derived Lantibiotics Induce Structural Changes of IL‐6 and IL‐21 Receptors and Modulate Host Immunity” (Advanced Science, 2022)
Peptide text beside a SMILES is read from it.

How the values were obtained:
[1] = molecular target: T1, murine IL‐21R (Mus musculus, UniProt Q9JHX3); assay: SPR binding to immobilized murine IL‐21R
T1 construct: Fc region of human IgG1 (C); purchased Sino Biological
Description: The binding affinities of salivaricins to IL‐6Rα or IL‐21R were assayed using the Biacore 8K instrument (GE Healthcare). Murine IL‐6Rα (20 nM, abcam) or IL‐21R ([…], Sino Biological) were immobilized on a CM5 sensor chip using standard amine‐coupling at 25 °C with PBS‐P running buffer (GE Healthcare), as described previously.^[ [39] ^] […] Regeneration was achieved by extended washing with NaOH (5 mm) after each sample injection. The dissociation constants (KD) of salivaricins were obtained by fitting the data sets to steady‐state affinity model using Biacore 8K Evaluation Software.

[2] = tested on: collagen‐induced arthritis (CIA) model mice; assay: Collagen‐induced arthritis (CIA) mice, prophylactic regimen; format: in vivo, DBA/1 mice; conditions: prophylactic administration in CIA mice
Description: Male DBA/1 mice (6–8 weeks old) were purchased from Huafukang Co. Ltd. (Beijing, China) and fed under specific pathogen‐free conditions. All experiments were carried out in accordance with guidelines prescribed by the Animal Care and Use Committee of Peking University People's Hospital (2019PHE047). CIA induction was established by following a previously published protocol.^[ [41] ^] Briefly, DBA/1 mice were immunized intradermally at the base of the tail with 200 µg of bovine type II collagen (CII, Chondrex) emulsified in complete Freund's adjuvant (Sigma‐Aldrich, St Louis, MO, USA) in equal volumes. Three weeks later, a booster was delivered using 100 µg CII emulsified in Freund's incomplete adjuvant. Mice were monitored for signs of arthritis after the booster immunization. Clinical score was assessed by using the following system as detailed previously:^[ [41] ^] […]
The paws from each mouse were collected and fixed in 4% paraformaldehyde (PFA) for 48 h, then scanned using a Micro‐CT scanner (Quantum FX, Caliper, USA). […] A microscopic assessment of sagittal sections was performed and histopathological changes were scored based on the following previously reported parameters:^[ [42] ^] […]

[3] = Table S4, immobilized mIL-21R, Steady state affinity model

T1 sequence (Q9JHX3 20-529): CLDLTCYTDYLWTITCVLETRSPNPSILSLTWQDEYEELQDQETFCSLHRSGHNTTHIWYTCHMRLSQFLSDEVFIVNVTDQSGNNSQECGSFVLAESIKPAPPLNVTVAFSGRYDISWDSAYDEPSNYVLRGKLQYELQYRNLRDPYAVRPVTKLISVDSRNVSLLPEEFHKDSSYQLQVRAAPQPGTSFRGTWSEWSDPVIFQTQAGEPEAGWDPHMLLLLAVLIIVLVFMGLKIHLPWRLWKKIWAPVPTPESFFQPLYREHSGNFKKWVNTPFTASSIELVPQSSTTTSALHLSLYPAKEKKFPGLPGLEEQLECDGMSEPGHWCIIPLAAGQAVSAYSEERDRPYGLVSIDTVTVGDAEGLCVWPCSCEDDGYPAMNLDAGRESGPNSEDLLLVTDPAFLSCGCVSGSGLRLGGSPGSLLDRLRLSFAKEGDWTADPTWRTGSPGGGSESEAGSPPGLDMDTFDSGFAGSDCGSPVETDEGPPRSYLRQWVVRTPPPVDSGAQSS

Structure (SMILES) | Kd ([1]; Figure S8D, salivaricin B mutant experiment, analyte 12.5-800, immobilized murine IL-21R 20 nM) | Kd [1, 3] | body weight [2] | Kd ([1]; Figure 5D legend, mutant experiment, analyte 12.5–800 µM, immobilized murine IL‐21R 20 nM)
CC[C@H](C)[C@H](NC(=O)[C@@H](NC(=O)CNC(=O)CNC(=O)CN)C(C)C)C(=O)N[C@@H](CCC(N)=O)C(=O)N[C@H](C(=O)N[C@H](C(=O)N[C@@H](CO)C(=O)N[C@@H](Cc1c[nH]cn1)C(=O)N[C@@H](CCC(=O)O)C(=O)N[C@@H](CS)C(=O)N[C@@H](CCCNC(=N)N)C(=O)N[C@@H](CCSC)C(=O)N[C@@H](CC(N)=O)C(=O)N[C@@H](CO)C(=O)N[C@@H](Cc1c[nH]c2ccccc12)C(=O)N[C@@H](CCC(N)=O)C(=O)N[C@@H](Cc1ccccc1)C(=O)N[C@@H](CC(C)C)C(=O)N[C@@H](Cc1ccccc1)C(=O)N[C@H](C(=O)N[C@@H](CS)C(=O)N[C@@H](CS)C(=O)N[C@@H](CO)C(=O)O)[C@@H](C)O)[C@@H](C)CC)[C@@H](C)O [salivaricin B] (H-GGGVIQTISHECRMNSWQFLFTCCS-OH) | 12.6 µM | 10.1 µM | without affecting body weight | 
CC[C@H](C)[C@H](NC(=O)[C@@H](NC(=O)[C@H](C)NC(=O)[C@H](Cc1ccccc1)NC(=O)[C@H](Cc1c[nH]c2ccccc12)NC(=O)CNC(=O)[C@@H](NC(=O)CNC(=O)[C@H](CCCNC(=N)N)NC(=O)[C@@H](N)CCCCN)[C@@H](C)O)[C@@H](C)O)C(=O)N[C@H](C(=O)N[C@@H](CC(=O)O)C(=O)N[C@@H](CC(=O)O)C(=O)N[C@@H](CS)C(=O)N1CCC[C@H]1C(=O)N[C@@H](CC(N)=O)C(=O)N[C@@H](CO)C(=O)N[C@H](C(=O)N[C@@H](Cc1ccccc1)C(=O)N[C@H](C(=O)N[C@@H](CS)C(=O)N[C@@H](CS)C(=O)O)C(C)C)C(C)C)[C@@H](C)O [salivaricin A2] (H-KRGTGWFATITDDCPNSVFVCC-OH) |  | 12.6 µM | without affecting body weight | 29.4 µM
